Residues, ends and D or L forms follow the SMILES beside them. No end group written: not given here.
system: 12 predominant HLA II molecules; test: Binding to the 12 predominant HLA II molecules, summary; set-up: species or system human; details: not given
Text: The assays for binding to HLA II molecules are competitive binding assays with immunoenzymatic visualization, as described in U.S. Pat. No. 6,649,166, Texier et al., J. Immunol., 2000, 164, 3177-3184 and Texier et al., Eur. J. Immunol., 2001, 31, 1837-1846, for the HLA-DR molecules, and in PCT international application WO 03/040299 and Castelli et al., J. Immunol., 2002, 169, 6928-6934, for the HLA-DP4 molecule. The use of these assays for measuring the binding activity of peptides derived from various antigens is illustrated in U.S. Pat. No. 6,649,166 and PCT international applications WO 02/090382, WO 03/040299 and WO 2004/014936.
The sensitivity of each assay is reflected by the IC50 values observed with the nonbiotinylated peptides which correspond to the tracers; the IC50 values of the tracers vary by a factor of less than three.

Compound	Binding specificity for HLA II molecules
CC(C)C[C@H](NC(=O)[C@H](CC(=O)O)NC(=O)[C@@H]1CCCN1)C(=O)N[C@@H](C)C(=O)N[C@@H](CCC(N)=O)C(=O)N[C@@H](CS)C(=O)N[C@@H](Cc1ccccc1)C(=O)N[C@@H](Cc1ccccc1)C(=O)N[C@@H](CS)C(=O)N[C@@H](Cc1ccccc1)C(=O)N[C@@H](CCCCN)C(=O)N[C@@H](CCC(=O)O)C(=O)N[C@@H](CC(C)C)C(=O)N[C@@H](CCC(=O)O)C(=O)NCC(=O)O [52-66, P D L A Q C F F C F K E L E G] (H-PDLAQCFFCFKELEG-OH; N-terminus and C-terminus assumed)	bind only to the HLA-DR11 molecule

same assay, conditions: number of the 12 predominant HLA II molecules bound (IC50 < 1000 nM)

Compound	No. of molecules fixed
CC(C)C[C@H](NC(=O)[C@H](Cc1ccccc1)NC(=O)[C@@H]1CCCN1C(=O)[C@H](Cc1c[nH]c2ccccc12)NC(=O)[C@H](CC(N)=O)NC(=O)[C@@H](N)CCCCN)C(=O)N[C@@H](CCC(=O)O)C(=O)NCC(=O)N[C@@H](CS)C(=O)N[C@@H](C)C(=O)N[C@@H](CS)C(=O)N[C@H](C(=O)N1CCC[C@H]1C(=O)N[C@@H](CCC(=O)O)C(=O)N[C@@H](CCCNC(=N)N)C(=O)O)[C@@H](C)O [23-37, K N W P F L E G C A C T P E R] (H-KNWPFLEGCACTPER-OH; N-terminus and C-terminus assumed)	1
CC(C)C[C@H](NC(=O)[C@H](CC(=O)O)NC(=O)[C@@H]1CCCN1)C(=O)N[C@@H](C)C(=O)N[C@@H](CCC(N)=O)C(=O)N[C@@H](CS)C(=O)N[C@@H](Cc1ccccc1)C(=O)N[C@@H](Cc1ccccc1)C(=O)N[C@@H](CS)C(=O)N[C@@H](Cc1ccccc1)C(=O)N[C@@H](CCCCN)C(=O)N[C@@H](CCC(=O)O)C(=O)N[C@@H](CC(C)C)C(=O)N[C@@H](CCC(=O)O)C(=O)NCC(=O)O [52-66, P D L A Q C F F C F K E L E G] (H-PDLAQCFFCFKELEG-OH; N-terminus and C-terminus assumed)	1
CC(C)C[C@H](NC(=O)[C@H](CCC(=O)O)NC(=O)[C@H](CCCCN)NC(=O)[C@H](Cc1ccccc1)NC(=O)[C@H](CS)NC(=O)[C@H](Cc1ccccc1)NC(=O)[C@H](Cc1ccccc1)NC(=O)[C@H](CS)NC(=O)[C@@H](N)CCC(N)=O)C(=O)N[C@@H](CCC(=O)O)C(=O)NCC(=O)N[C@@H](Cc1c[nH]c2ccccc12)C(=O)N[C@@H](CCC(=O)O)C(=O)N1CCC[C@H]1C(=O)N[C@@H](CC(=O)O)C(=O)O [56-70, Q C F F C F K E L E G W E P D] (H-QCFFCFKELEGWEPD-OH; N-terminus and C-terminus assumed)	1
E E L T L G E F L K L D R E R (EELTLGEFLKLDRER; listed as Homo sapiens) [94-108, 15-mer of human survivin, positions 94-108; insoluble peptide]	0
QPFLKDHRISTFKNW [11-25, Q P F L K D H R I S T F K N W]	2

From patent publication US9687539B2, “CD4+ T survivin epitopes and uses thereof” (Commissariat a I'Energie Atomique, priority 2005, dated 2017)
